Measured values published in patent US20240308998A1, “PYRROLOPYRIDONE DERIVATIVES USEFUL IN THE TREATMENT OF CANCER” (Tay Therapeutics Limited, priority 2021, published 2024).

What was measured:
BRD4 BD1 = molecular target: T1, BRD4 BD1 (Homo sapiens, UniProt O60885); assay: NanoBRET bromodomain assay, BRD4 BD1; type: cell-based; settings: HEK293 cells transfected with NanoLuc-BRD4-BD1
T1 construct: HEK293 cells were transfected using NanoLuc-BRD4-BD1 or NanoLuc-BRD4-BD2 fusion vectors; host or cells: HEK293
Experimental: (§1) HEK293 cells were transfected using NanoLuc-BRD4-BD1 or NanoLuc-BRD4-BD2 fusion vectors and incubated at 37° C. in an atmosphere of 5% CO2 for 20-24 hours. The transfected cells were then dispensed into 96-well plates using 90 μl cell suspension per well containing 2×10^5 cells/ml in Opti-MEM and 1x final concentration of tracer. 90 μl per well of cell suspension without tracer was also dispensed into at least 3 wells as “No tracer control samples” for background correction. Serially diluted test compounds were prepared at 1000× concentration in DMSO and further diluted to 10× concentration in Opti-MEM. 10 μl per well of the serially diluted 10× test compound was added to the 96-well plates containing cells with 1x tracer. Plates were then incubated at 37° C.+5% C02 incubator for 2 hours. Immediately prior to BRET measurements, a 3x solution consisting of 1:166 dilution of Nano-Glo® Substrate plus a 1:500 dilution of Extracellular NanoLuc Inhibitor in Opti-MEM was prepared and 50 μl per well was added to the cells. Donor emission (450 nm) and acceptor emission (610 nm) were measured using PHERAstar (BMG LabTech). For data analysis, the raw BRET ratio was generated and converted to milliBRET units with background correction using the formula: [(Acceptorsample/Donorsample)−(Acceptorno tracer control/Donorno tracer control)]×1000. The mBU data was plotted as a function of compound concentration and IC50s for BRET assay were determined by nonlinear regression analysis of concentration response curves using the GraphPad Prism software.

BRD4 BD2 = molecular target: T2, BRD4 BD2 (Homo sapiens, UniProt O60885); assay: NanoBRET bromodomain assay, BRD4 BD2; type: cell-based; settings: for Fold selectivity BRD4 BD1/BD2: IC50 BD1/IC50 BD2; for IC50: NanoBRET, HEK293 cells transfected with NanoLuc-BRD4-BD2
T2 construct: HEK293 cells were transfected using NanoLuc-BRD4-BD1 or NanoLuc-BRD4-BD2 fusion vectors; host or cells: HEK293
Experimental: as §1
Fold Selectivity Calculated (IC50 BD1/IC50 BD2).

Structure (SMILES)	IC50 (BRD4 BD1) [nM]	Fold selectivity BRD4 BD1/BD2 (BRD4 BD2)	IC50 (BRD4 BD2) [nM]
Cc1cccc(C)c1Oc1cn(C)c(=O)cc1-c1cn(C)c(=O)c2[nH]c(-c3cc(C(F)(F)F)ccc3F)cc12 [Example 34, 4-(5-(2,6-dimethylphenoxy)-1-methyl-2-oxo-1,2-dihydropyridin-4-yl)-2-(2-fluoro-5-(trifluoromethyl)phenyl)-6-methyl-1,6-dihydro-7H-pyrrolo[2,3-c] pyridin-7-one]	> 1000	xxx (Fold >200)	≤ 50
Cc1cccc(C)c1Oc1cn(C)c(=O)cc1-c1cn(C)c(=O)c2[nH]c(-c3cnn(CS(C)(=O)=O)c3)cc12 [Example 65, 4-(5-(2,6-dimethylphenoxy)-1-methyl-2-oxo-1,2-dihydropyridin-4-yl)-6-methyl-2-(1-((methylsulfonyl)methyl)-1H-pyrazol-4-yl)-1,6-dihydro-7H-pyrrolo[2,3-c]pyridin-7-one]	> 1000	x (Fold >2 and ≤50)	≤ 50
Cc1cccc(C)c1Oc1cn(C)c(=O)cc1-c1cn(C)c(=O)c2[nH]c(-c3ncccn3)cc12 [Example 39, 4-(5-(2,6-dimethylphenoxy)-1-methyl-2-oxo-1,2-dihydropyridin-4-yl)-6-methyl-2-(pyrimidin-2-yl)-1,6-dihydro-7H-pyrrolo[2,3-c] pyridin-7-one]	> 1000	xx (Fold >50 and ≤200)	50 to 200
CC(C)n1cc(-c2cc3c(-c4cc(=O)n(C)cc4C4CCCC4)cn(C)c(=O)c3[nH]2)cn1 [Example 53, 4-(5-cyclopentyl-1-methyl-2-oxo-1,2-dihydropyridin-4-yl)-2-(1-isopropyl-1H-pyrazol-4-yl)-6-methyl-1,6-dihydro-7H-pyrrolo[2,3-c]pyridin-7-one]	50 to 500	xx (Fold >50 and ≤200)	≤ 50
C#Cc1cn(C)c(=O)cc1-c1cn(C)c(=O)c2[nH]c(-c3cnn(C(C)C)c3)cc12 [Example 56, 5-ethynyl-4-[2-(1-isopropylpyrazol-4-yl)-6-methyl-7-oxo-1H-pyrrolo[2,3-c]pyridin-4-yl]-1-methylpyridin-2-one]	50 to 500	x (Fold >2 and ≤50)	≤ 50
Cc1cccc(C)c1Oc1cn(C)c(=O)cc1-c1cn(C)c(=O)c2[nH]c(-c3cc(F)ccc3F)cc12 [Example 46, 2-(2,5-difluorophenyl)-4-(5-(2,6-dimethylphenoxy)-1-methyl-2-oxo-1,2-dihydropyridin-4-yl)-6-methyl-1,6-dihydro-7H-pyrrolo[2,3-c]pyridin-7-one]	> 1000	xxx (Fold >200)	≤ 50
Cc1cc(-c2cc3c(-c4cc(=O)n(C)cc4C4CCCC4)cn(C)c(=O)c3[nH]2)cc(C)n1 [Example 54, 5-cyclopentyl-4-[2-(2,6-dimethylpyridin-4-yl)-6-methyl-7-oxo-1H-pyrrolo[2,3-c]pyridin-4-yl]-1-methylpyridin-2-one]	50 to 500	xx (Fold >50 and ≤200)	≤ 50
Cc1cccc(C)c1Oc1cn(C)c(=O)cc1-c1cn(C)c(=O)c2[nH]c(-c3ccnnc3)cc12 [Example 27, 4-(5-(2,6-dimethylphenoxy)-1-methyl-2-oxo-1,2-dihydropyridin-4-yl)-6-methyl-2-(pyridazin-4-yl)-1,6-dihydro-7H-pyrrolo[2,3-c] pyridin-7-one]	> 1000	xx (Fold >50 and ≤200)	50 to 200
Cc1cccc(C)c1Oc1cn(C2CNC2)c(=O)cc1-c1cn(C)c(=O)c2[nH]c(-c3cn(C(C)C)nc3C)cc12 [Example 42, 4-(1-(azetidin-3-yl)-5-(2,6-dimethylphenoxy)-2-oxo-1,2-dihydropyridin-4-yl)-2-(1-isopropyl-3-methyl-1H-pyrazol-4-yl)-6-methyl-1,6-dihydro-7H-pyrrolo[2,3-c]pyridin-7-one]	> 1000	xx (Fold >50 and ≤200)	50 to 200
CC#Cc1cn(C)c(=O)cc1-c1cn(C)c(=O)c2[nH]c(-c3cnn(C(C)C)c3)cc12 [Example 57, 4-[2-(1-isopropylpyrazol-4-yl)-6-methyl-7-oxo-1H-pyrrolo[2,3-c]pyridin-4-yl]-1-methyl-5-(prop-1-yn-1-yl)pyridin-2-one]	50 to 500	x (Fold >2 and ≤50)	≤ 50
Cc1cccc(C)c1Oc1cn(C2COC2)c(=O)cc1-c1cn(C)c(=O)c2[nH]c(-c3ccccc3F)cc12 [Example 41, 4-(5-(2,6-dimethylphenoxy)-1-(oxetan-3-yl)-2-oxo-1,2-dihydropyridin-4-yl)-2-(2-fluorophenyl)-6-methyl-1,6-dihydro-7H-pyrrolo[2,3-c] pyridin-7-one]	> 1000	xx (Fold >50 and ≤200)	50 to 200
Cc1cc(-c2cc3c(-c4cc(=O)n(C)cc4Oc4c(C)cccc4C)cn(C)c(=O)c3[nH]2)ncn1 [Example 38, 4-(5-(2,6-dimethylphenoxy)-1-methyl-2-oxo-1,2-dihydropyridin-4-yl)-6-methyl-2-(6-methylpyrimidin-4-yl)-1,6-dihydro-7H-pyrrolo[2,3-c] pyridin-7-one]	> 1000	xxx (Fold >200)	≤ 50
Cn1cc(C2CCCC2)c(-c2cn(C)c(=O)c3[nH]c(-c4ccccc4)cc23)cc1=O [Example 55, 5-cyclopentyl-1-methyl-4-{6-methyl-7-oxo-2-phenyl-1H-pyrrolo[2,3-c]pyridin-4-yl}pyridin-2-one]	50 to 500	x (Fold >2 and ≤50)	≤ 50
Cc1cccc(C)c1Oc1cn(C2CNC2)c(=O)cc1-c1cn(C)c(=O)c2[nH]c(-c3cnn(C(C)C)c3C)cc12 [Example 43, 4-(1-(azetidin-3-yl)-5-(2,6-dimethylphenoxy)-2-oxo-1,2-dihydropyridin-4-yl)-2-(1-isopropyl-5-methyl-1H-pyrazol-4-yl)-6-methyl-1,6-dihydro-7H-pyrrolo[2,3-c] pyridin-7-one]	> 1000	x (Fold >2 and ≤50)	> 1000
Cc1cc(-c2cc3c(-c4cc(=O)n(C)cc4C4CCCC4)cn(C)c(=O)c3[nH]2)n(C)n1 [Example 52, 5-cyclopentyl-4-[2-(2,5-dimethylpyrazol-3-yl)-6-methyl-7-oxo-1H-pyrrolo[2,3-c]pyridin-4-yl]-1-methylpyridin-2-one]	50 to 500	x (Fold >2 and ≤50)	≤ 50
Cc1cc(-c2cc3c(-c4cc(=O)n(C)cc4Oc4c(C)cccc4C)cn(C)c(=O)c3[nH]2)ccn1 [Example 45, 4-(5-(2,6-dimethylphenoxy)-1-methyl-2-oxo-1,2-dihydropyridin-4-yl)-6-methyl-2-(2-methylpyridin-4-yl)-1,6-dihydro-7H-pyrrolo[2,3-c]pyridin-7-one]	500 to 1000	x (Fold >2 and ≤50)	≤ 50
Cc1cccc(C)c1Oc1cn(C2COC2)c(=O)cc1-c1cn(C)c(=O)c2[nH]c(-c3cnn(C)c3C)cc12 [Example 40, 2-(1,5-dimethyl-1H-pyrazol-4-yl)-4-(5-(2,6-dimethylphenoxy)-1-(oxetan-3-yl)-2-oxo-1,2-dihydropyridin-4-yl)-6-methyl-1,6-dihydro-7H-pyrrolo[2,3-c] pyridin-7-one]	50 to 500	x (Fold >2 and ≤50)	≤ 50
CC#Cc1cn(C)c(=O)cc1-c1cn(C)c(=O)c2[nH]c(-c3cc(C)nc(C)c3)cc12 [Example 58, 4-[2-(2,6-dimethylpyridin-4-yl)-6-methyl-7-oxo-1H-pyrrolo[2,3-c]pyridin-4-yl]-1-methyl-5-(prop-1-yn-1-yl)pyridin-2-one]	> 1000	xxx (Fold >200)	≤ 50
Cc1cccc(C)c1Oc1cn(C)c(=O)cc1-c1cn(C)c(=O)c2[nH]c(-c3ccccc3C#N)cc12 [Example 48, 2-{4-[5-(2,6-dimethylphenoxy)-1-methyl-2-oxopyridin-4-yl]-6-methyl-7-oxo-1H-pyrrolo[2,3-c]pyridin-2-yl}benzonitrile]	> 1000	xxx (Fold >200)	≤ 50
Cc1cccc(C)c1Oc1cn(C)c(=O)cc1-c1cn(C)c(=O)c2[nH]c(-c3c(F)cccc3F)cc12 [Example 37, 2-(2,6-difluorophenyl)-4-(5-(2,6-dimethylphenoxy)-1-methyl-2-oxo-1,2-dihydropyridin-4-yl)-6-methyl-1,6-dihydro-7H-pyrrolo[2,3-c] pyridin-7-one]	> 1000	xx (Fold >50 and ≤200)	50 to 200
